Data on 17 molecules can be found in patent US11952365B2, “Anti-viral compounds” (Aligos Therapeutics, Inc., priority 2020, dated 2024).

By IC50 is commonly meant the midpoint of a concentration-inhibition curve. The term EC50 denotes the concentration that produces a half-maximal response. By CC50 is commonly meant the concentration that lowers cell viability or growth by half. Read a high CC50 as lower toxicity to the cells.

The target in data set [1] is T1, human cathepsin L (Homo sapiens, UniProt P07711).
T1 construct: purchased R&D Systems
The data set is described as follows: cathepsin L assay. In kind it is biochemical. To be noted: 10 pM human cathepsin L, Z-FR-AMC 2 μM, class symbols. The protocol: For the cathepsin L assay, 10 pM of human cathepsin L (R&D Systems; Minneapolis, MN) was preincubated for 30 mins with test compounds. Reactions were initiated by the addition of a peptide substrate Z-FR-AMC (final concentration 2 μM, Anaspec; Fremont, CA). Fluorescence was measured at 2-minute intervals for 30 mins using a 355/460 excitation/emission filter module on an Envision plate reader (Perkin Elmer; Waltham, MA). The IC50 values were calculated for each assay by fitting the curves using a four-parameter equation in GraphPad Prism.

The target in data set [2] is 3CLpro (Severe acute respiratory syndrome coronavirus 2, UniProt P0DTD1). As to the kind of experiment: SARS-CoV-2 3CLpro protease assay (duplex, SAMDI-MS). Type of data set: biochemical. The arrangement: For the duplex assay, 3CLpro and HRV3C was added. To be noted: 3CLpro, 30 mins preincubation, class symbols; read-out: SARS-Cov-2 IC50.
In data set [3] the target is HRV3C (Human rhinovirus 14, UniProt P03303). As to the kind of experiment: HRV3C protease assay (duplex, SAMDI-MS). Type of data set: biochemical, HRV. As to conditions: HRV3C, 30 mins preincubation, read-out: HRV IC50. The protocol:
Protease assays were performed in 384-well low volume polypropylene microtiter plates at ambient temperature. For the duplex assay, 3CLpro and HRV3C was added using a Multidrop Combi (Thermo Scientific; Waltham, MA) and preincubated for 30 mins with small molecules. The reactions were initiated by the addition of the two peptide substrates. The reactions were incubated for 30 mins and quenched by the addition of 0.5% formic acid (final) with subsequent neutralization using 1% sodium bicarbonate (final). Internal standard peptides were added in 20 mM Hepes pH 8.0 for quantitation of the protease products. For SAMDI-MS analysis, 2 μL of each reaction mixture was transferred using a 384-channel automated liquid handler to SAMDI biochip arrays functionalized with a neutravidin-presenting self-assembled monolayer. The SAMDI arrays were incubated for 1 h in a humidified chamber to allow the specific immobilization of the biotinylated peptide substrates, cleaved products and internal standards. The samples were purified by washing the SAMDI arrays with deionized ultrafiltered water and dried with compressed air. A matrix comprising alpha-cyano cinnamic acid in 80% acetonitrile:20% aqueous ammonium citrate was applied in an automated format by dispensing 50 nL to each spot in the array. SAMDI-MS was performed using reflector-positive mode on an AB Sciex TOF-TOF 5800 System (AB Sciex, Framingham, MA) with 400 shots/spot analyzed in a random raster sampling. For data analysis, area under the curves (peaks) (AUCs) for the product and internal standard were calculated using the TOF/TOF Series Explorer (AB Sciex), and the amount of product formed was calculated using the equation (AUC product/AUC internal standard). The amount of product generated was calculated using the ratio of product area under the curve (AUC) divided by the AUC of the internal standard. Negative controls were pre-quenched with 0.5% formic acid final. Assay robustness was determined by Z-Factor. The IC50s were determined by fitting the curves using a four-parameter equation in Graphpad Prism 8.

The test system of data set [4] is human beta-coronavirus OC43. The data set is described as follows: microbe, parasite or virus in culture. Type of data set: cell-based. To be noted: Betacoronavirus 1, OC43, HeLa, 144 h, OC43 in HeLa cells, 6 days at 33° C., read-out: EC50.
Data set [5] can be described thus: Cytotoxicity plates without OC43 virus (cell-titer-glo). Type of data set: cell-based, human. To be noted: human; HeLa cells without OC43 virus, class symbols. On the procedure: The human beta-coronavirus OC43 was purchased from ATCC (Manassas, VA) and propagated using HCT-8 human colorectal epithelial cells (ATCC). HeLa human cervical epithelial cells (ATCC) were used as susceptible host cell lines and were cultured using EMEM media, supplemented with 10% fetal bovine serum (FBS), 1% (v/v) penicillin/streptomycin (P/S), 1% (v/v) HEPES and 1% (v/v) Cellgro Glutagro™ supplement (all Corning, Manassas, VA) at 37° C. For the OC43 antiviral assay, 1.5×10^4 HeLa cells per well were plated in 100 μL complete media in white 96-well plates with clear bottoms at 37° C. for up to 24 h to facilitate attachment and allow cells to recover from seeding stresses. Next day, the cell culture medium was removed. Serially diluted compounds in 100 μL assay media (EMEM, 2% FBS, 1% P/S, 1% Cellgro Glutagro™ supplement, 1% HEPES) were added to the cells and incubated for 4H at 37° C. in a humidified 5% CO2 incubator. 100 μL of OC43 virus stock was diluted to a concentration known to produce optimal cytopathic effect, inducing 80-90% reduction in cell viability. 96-well plates were incubated for 6 (HeLa) days at 33° C.; each plate contains uninfected control wells as well as virus-infected wells that were not treated with compound. Cytotoxicity plates without the addition of OC43 virus were carried out in parallel. At the end of the incubation period, 100 μL cell culture supernatant was replaced with 100 μL cell-titer-glo reagent (Promega, Madison, WI) and incubated for at least 10 min at rt prior to measuring luminescence. Luminescence was measured on a Perkin Elmer (Waltham, MA) Envision plate reader. Antiviral % inhibition was calculated as follows: [(Compound treated cells infected sample)−(no compound infected control)]/[(Uninfected control)−(no compound infected control)]*100; Using GraphPad (San Diego, CA) prism software version 8.3.1, the antiviral dose-response plot was generated as a sigmoidal fit, log(inhibitor) vs response-variable slope (four parameters) model and the EC50 was calculated which is the predicted compound concentration corresponding to a 50% inhibition of the viral cytopathic effect.

Like-named read-outs stand apart in the source and are kept apart here.

Turning to `CCOC(=O)c1cc(C(=O)N2C[C@@H]3CCC[C@@H]3[C@H]2C(=O)N[C@H](C#N)C[C@@H]2CCNC2=O)[nH]c1C` [Compound 193], the IC50 in data set [1] was at least 10 µM; in data set [2], 200 to 2000 nM; in data set [3] (bound), above 10 µM.
Take `COc1cc(F)c(F)c2[nH]c(C(=O)N3C[C@@H]4CCC[C@@H]4[C@H]3C(=O)N[C@@H](C[C@@H]3CCNC3=O)C(=O)CO)cc12` [Compound 184, (1S,3aR,6aS)-2-(6,7-difluoro-4-methoxy-1H-indole-2-carbonyl)-N-[(2S)-4-hydroxy-3-oxo-1-[(3S)-2-oxopyrrolidin-3-yl]butan-2-yl]-hexahydro-1H-cyclopenta[c]pyrrole-1-carboxamide]: the results for the IC50 in data set [1], in data set [2] and in data set [3] (class symbols) were at least 10 µM, below 20 nM and 2 to 20 µM, respectively.
Turning to `COc1cc(Cl)cc2[nH]c(C(=O)N3C[C@@H]4CCC[C@@H]4[C@H]3C(=O)N[C@H](C#N)C[C@@H]3CCNC3=O)cc12` [Compound 192], the IC50 is at least 10 µM in data set [1], 200 to 2000 nM in data set [2] and above 10 µM in data set [3] (bound).
Take `N#C[C@H](C[C@@H]1CCNC1=O)NC(=O)[C@@H]1[C@H]2CCC[C@H]2CN1C(=O)c1cc2c(Cl)cc(Cl)cc2[nH]1` [Compound 188]: the IC50 in data set [1] is at least 10 µM; in data set [2], 200 to 2000 nM; in data set [3] (bound), above 10 µM.
For `C#C[C@H](C[C@@H]1CCNC1=O)NC(=O)[C@@H]1[C@H]2CCC[C@H]2CN1C(=O)c1cc2c(Cl)ccc(Cl)c2[nH]1` [Compound 177, (1S,3aR,6aS)-2-(4,7-dichloro-1H-indole-2-carbonyl)-N-[(2S)-1-[(3S)-2-oxopyrrolidin-3-yl]but-3-yn-2-yl]-hexahydro-1H-cyclopenta[c]pyrrole-1-carboxamide], the IC50 is at least 10 µM in data set [1], 2000 to 20000 nM in data set [2] and above 10 µM in data set [3] (bound). The EC50 in data set [4] (bound) was above 10000 nM. Moreover, the CC50 at 6 days in data set [5] is above 10 µM.
Regarding `COc1cccc2[nH]c(C(=O)N3C[C@H]4CCCC[C@H]4[C@@H]3C(=O)N[C@@H](C[C@@H]3CCCNC3=O)C(=O)COCc3ccccc3)cc12` (single isomer, unassigned) [Compound 59A_2], the IC50 is at least 10 µM in data set [1], 200 to 2000 nM in data set [2] and above 10 µM in data set [3] (bound). For the same molecule, the EC50 in data set [4] (class symbols) lay in the range of 1000 to 10000 nM. In data set [5], this molecule gave a CC50 at 6 days above 10 µM.
For the molecule `COc1cccc2[nH]c(C(=O)N3C[C@H]4CCCC[C@H]4[C@@H]3C(=O)N[C@@H](C[C@@H]3CCCNC3=O)C(=O)CO)cc12` [Compound 59_2, (1R,3aS,7aR)—N—((S)-4-hydroxy-3-oxo-1-((S)-2-oxopiperidin-3-yl)butan-2-yl)-2-(4-methoxy-1H-indole-2-carbonyl)octahydro-1H-isoindole-1-carboxamide], the IC50 in data set [1] is at least 10 µM; in data set [2], 200 to 2000 nM; in data set [3] (bound), above 10 µM. For the same molecule, the EC50 in data set [4] (class symbols) lay in the range of 1000 to 10000 nM. The same molecule registered a CC50 at 6 days in data set [5] above 10 µM.
With `N#C[C@H](C[C@@H]1CCNC1=O)NC(=O)[C@@H]1[C@H]2CCC[C@H]2CN1C(=O)c1nc2c(Cl)ccc(Cl)c2[nH]1` [Compound 186], the half-inhibitory concentration (IC50) is at least 10 µM in data set [1], 200 to 2000 nM in data set [2] and above 10 µM in data set [3] (bound).
As to `COc1cccc2[nH]c(C(=O)N3C[C@@H]4CCCC[C@@H]4[C@H]3C(=O)N[C@@H](C[C@@H]3CCCNC3=O)C(=O)CO)cc12` [Compound 59_1, (1S,3aR,7aS)—N—((S)-4-hydroxy-3-oxo-1-((S)-2-oxopiperidin-3-yl)butan-2-yl)-2-(4-methoxy-1H-indole-2-carbonyl)octahydro-1H-isoindole-1-carboxamide], the values for the IC50 in data set [1], in data set [2] and in data set [3] (class symbols) were at least 10 µM, below 20 nM and 2 to 20 µM, respectively. In addition, the EC50 in data set [4] (class symbols) lay within 100 to 1000 nM. In data set [5], this molecule showed a CC50 at 6 days above 10 µM.
In the case of `N#C[C@H](C[C@@H]1CCNC1=O)NC(=O)[C@@H]1[C@H]2CCC[C@H]2CN1C(=O)c1cc2c(OC3CC3)cc(Cl)cc2[nH]1` [Compound 185, (1S,3aR,6aS)-2-(6-chloro-4-cyclopropoxy-1H-indole-2-carbonyl)-N-[(1S)-1-cyano-2-[(3S)-2-oxopyrrolidin-3-yl]ethyl]-hexahydro-1H-cyclopenta[c]pyrrole-1-carboxamide], the IC50 in data set [1] is at least 10 µM; in data set [2], 200 to 2000 nM; in data set [3] (bound) it was above 10 µM.
As to `N#C[C@H](C[C@@H]1CCNC1=O)NC(=O)[C@@H]1[C@H]2CCC[C@H]2CN1C(=O)c1cc2c(Cl)ccc(C(F)(F)F)c2[nH]1` [Compound 175], the results for the IC50 in data set [1], in data set [2] and in data set [3] (bound) were at least 10 µM, 200 to 2000 nM and above 10 µM, respectively. Further, in data set [4] (class symbols), the EC50 was 1000 to 10000 nM. The molecule also returned a CC50 at 6 days in data set [5] above 10 µM.
On to `COc1ccc(F)c2[nH]c(C(=O)N3C[C@@H]4CCC[C@@H]4[C@H]3C(=O)N[C@H](C#N)C[C@@H]3CCNC3=O)cc12` [Compound 189], for which the IC50 in data set [1] was at least 10 µM; in data set [2], 200 to 2000 nM; in data set [3] (bound) it was above 10 µM.
Take `COc1nccc2[nH]c(C(=O)N3C[C@@H]4CCC[C@@H]4[C@H]3C(=O)N[C@H](C#N)C[C@@H]3CCNC3=O)cc12` [Compound 191]: the half-inhibitory concentration (IC50) in data set [1] is at least 10 µM; in data set [2], 200 to 2000 nM; in data set [3] (bound), above 10 µM.
As for `COc1cccc2[nH]c(C(=O)N3CC4(C5CC5)CC3(C(=O)N[C@@H](C[C@@H]3CCNC3=O)C(=O)C(=O)NC3CC3)C4)cc12` [Compound 131], the IC50 in data set [1] is at least 10 µM; in data set [2] it was 20 to 200 nM; in data set [3] (class symbols), 0.02 to 0.2 µM. In addition, the EC50 in data set [4] (bound) was above 10000 nM. This molecule showed a CC50 at 6 days in data set [5] above 10 µM.
Turning to `N#C[C@H](C[C@@H]1CCNC1=O)NC(=O)[C@@H]1[C@H]2CCC[C@H]2CN1C(=O)c1cc2c(Cl)cc(F)cc2[nH]1` [Compound 187], the IC50 in data set [1] was at least 10 µM; in data set [2], 200 to 2000 nM; in data set [3] (bound) it was above 10 µM.
For the molecule `N#C[C@H](C[C@@H]1CCNC1=O)NC(=O)[C@@H]1[C@H]2CCC[C@H]2CN1C(=O)c1cc2c(OC(F)F)cccc2[nH]1` [Compound 190], the IC50 in data set [1] was at least 10 µM; in data set [2], 200 to 2000 nM; in data set [3] (bound), above 10 µM.
With `COc1ccc(Cl)c2cc(C(=O)N3C[C@@H]4CCC[C@@H]4[C@H]3C(=O)N[C@@H](C[C@@H]3CCNC3=O)C(=O)CO)[nH]c12` [Compound 176], the results for the IC50 in data set [1], in data set [2] and in data set [3] (bound) were at least 10 µM, 20 to 200 nM and above 10 µM, respectively. For the same molecule, the EC50 in data set [4] (class symbols) was in the range of 100 to 1000 nM. In addition, in data set [5], the CC50 at 6 days is above 10 µM.
